Tests used:
[1] = Dynamic and quasi-static surface tension, tensiometer SITA science line t60; type: physicochemical; conditions: for Surface Tension at 0.1 Hz: bubble frequency 0.1 Hz (quasi-static); for Surface Tension at 10 Hz: bubble frequency 10 Hz (dynamic)
Text: Quasi-Static or equilibrium surface tension at an air-liquid interface can be determined by the Du Noüy ring method, the Wilhelmy plate or the like. […] To avoid such problems, a dynamic method is used but the frequency is reduced to 0.1 Hz or less, thus close enough to equilibrium conditions. […] The products therefore fulfill the complex profile as explained above perfectly.
(§1) Foam properties and surface tension of various alkoxylated glycerol acetals were compared with data obtained from conventional fatty alcohol alkoxylates at 0.1 and 0.25% b.w. concentration, respectively. Foam potential was tested with SITA foam tester R-2000, available from SITA Messtechnik GmbH, Gostritzer Str. 61-63, 01217 Dresden, Germany. Dynamic surface tension was determined with the tensiometer SITA science line t60, ibid.

[2] = Foam potential, SITA foam tester R-2000; type: physicochemical; conditions: 0.1% aqueous solution/dispersion
Method: as §1

[3] = 0.1% aqueous solution/dispersion
[4] = 0.25% aqueous solution/dispersion

Row | Substance | Surface Tension at 0.1 Hz [1, 3] [mN/m] | Surface Tension at 10 Hz [1, 3] [mN/m] | Foam after 1 min [2] [mL] | Foam after 5 min [2] [mL] | Surface Tension at 0.1 Hz [1, 4] [mN/m] | Surface Tension at 10 Hz [1, 4] [mN/m]
1 | n-octyl glycerol acetal+4PO+4EO [Example 1] | 32 | 44 | 30 | 25 |  | 
2 | n-decyl glycerol acetal+4PO+4EO [Example 3] | 31 | 50 | 120 | 110 |  | 
3 | n-decyl glycerol acetal+4PO+4EO [Example 11] |  |  |  |  | 31 | 44
4 | Decanol + 5EO [Example C2, reference compound] | 26 | 40 | 190 | 170 |  | 
5 | Isodecanol + 6EO [Example C3, reference compound] |  |  |  |  | 27 | 34
6 | Isodecanol + 6EO [Example C1, reference compound] | 27 | 40 | 225 | 210 |  | 
7 | n-decyl glycerol acetal+4PO+4EO [Example 10] |  |  |  |  | 32 | 38
8 | n-decyl glycerol acetal+4PO+4EO [Example 2] | 30 | 52 | 100 | 80 |  | 
9 | n-octyl glycerol acetal+4PO+4EO [Example 9] |  |  |  |  | 32 | 39
10 | Decanol + 5EO [Example C4, reference compound] |  |  |  |  | 26 | 33
11 | iso-nonyl glycerol acetal+3PO+3EO [Example 5] | 31 | 43 | 0 | 0 |  | 
12 | iso-nonyl glycerol acetal+3PO+3EO [Example 13] |  |  |  |  | 29 | 36

Reference: patent US8901165B2, “Alkoxylated glycerol acetals and their derivatives” (Cognis IP Management GmbH, priority 2009, dated 2014)
